Columns and labels:
Type in all cases: in vivo
[1] = test system: Phakopsora pachyrhizi (the causal agent of Asian soybean rust); assay: Test F: Compound 32 or 64 alone and in mixtures on soybean seedlings, observed (Obsd) and Colby expected (Exp) disease control; conditions: for pest or weed control at 138.129 ppm / pest or weed control at 222.081 ppm / pest or weed control at 46.795 ppm / pest or weed control at 89.631 ppm: Phakopsora pachyrhizi; for pest or weed control at 138.129 ppm: chlorothalonil 138.129 ppm alone; for pest or weed control at 222.081 ppm: chlorothalonil 222.081 ppm alone; for pest or weed control at 46.795 ppm: epoxiconazole 46.795 ppm alone; for pest or weed control at 89.631 ppm: epoxiconazole 89.631 ppm alone
Description: The general protocol for preparing test compositions for Test F was as follows: Compound 32, Compound 64, azoxystrobin, benzovindiflupyr, bixafen, chlorothalonil, cyproconazole, epoxiconazole, fenpropidin, fenpropimorph, fluindapyr, flutriafol, fluxapyroxad, metominostrobin, picoxystrobin, prothioconazole, pydiflumetofen, pyraclostrobin, tebuconazole and trifloxystrobin were obtained as unformulated, technical-grade materials. Copper hydroxide and mancozeb was obtained as a formulated product marketed under the trademarks KOCIDE 3000 and MANZATE, respectively. Unformulated materials were first dissolved in acetone and then suspended at the desired concentration (in ppm) in acetone and purified water (50/50 mix by volume) containing 250 ppm of the surfactant Trem® 014 (polyhydric alcohol esters). Formulated materials were dispersed in sufficient water to give the desired concentration, and neither organic solvent nor surfactant was added to the suspension. The resulting test mixtures were then used in Test F. The tests were run on four individual plants and the results reported as the mean average of the four plants.
The presence of a synergistic effect between two active ingredients was established with the aid of the Colby equation (see Colby, S. R. “Calculating Synergistic and Antagonistic Responses of Herbicide Combinations”, Weeds, (1967), 15, 20-22):
Using the method of Colby, the presence of a synergistic interaction between two active ingredients is established by first calculating the predicted activity, p, of the mixture based on activities of the two components applied alone. If p is lower than the experimentally established effect, synergism has occurred. In the equation above, A is the fungicidal activity in percentage control of one component applied alone at rate x. The B term is the fungicidal activity in percentage control of the second component applied at rate y. The equation estimates p, the expected fungicidal activity of the mixture of A at rate x with B at rate y if their effects are strictly additive and no interaction has occurred.
The test mixture was sprayed to the point of run-off on soybean seedlings. The following day the seedlings were inoculated with a spore suspension of Phakopsora pachyrhizi (the causal agent of Asian soybean rust) and incubated in a saturated atmosphere at 22° C. for 24 h and then moved to a growth chamber at 22° C. for 8 days, after which time visual disease ratings were made.
Results for Test F are given in Tables B-1 through I-1 for Compound 32 and Tables B-2 through I-2 for Compound 64. Each table corresponds to a set of evaluations performed together at the same time. In each table, a rating of 100 indicates 100% disease control and a rating of 0 indicates no disease control (relative to the controls). Columns labeled “Obsd” indicate the average of results observed from test run on four individual plants. Columns labeled “Exp” indicate the expected value for each treatment mixture using the Colby equation.

[2] = test system: Phakopsora pachyrhizi (the causal agent of Asian soybean rust); assay: Test A: preventive spray on soybean seedlings, visual disease rating (100 = 100% control; * 50 ppm, ** 10 ppm, *** 250 ppm); conditions: 100 = 100% disease control
Summary of the method: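 Preventive test: one day after spraying compound (acetone/water suspension, 250 ppm PEG400), seedlings received rust spore inoculum, 24 h in saturated air then 8 days in growth chamber, both at 22 °C. Disease control scored visually, 100 = complete, 0 = none, relative to untreated controls.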

[3] = test system: Puccinia recondita f. sp. tritici (the causal agent of wheat leaf rust); assay: Test B: preventive spray on wheat seedlings, disease rating (100 = 100% control; * 50 ppm, ** 10 ppm, *** 250 ppm); conditions: 100 = 100% disease control
Summary of the method: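 Preventive test: Puccinia recondita f. sp. tritici spores were inoculated one day after run-off spraying of wheat seedlings with test suspension (acetone/water 50/50, 250 ppm PEG400). After 24 h in saturated air and 6 days in a growth chamber, both at 20° C, control was scored 0–100 versus untreated plants.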

[4] = 50 ppm test suspension, 0 = no control
[5] = 10 ppm test suspension, soybean seedlings
[6] = 10 ppm test suspension, wheat seedlings
[7] = 10 ppm test suspension, 0 = no control

SMILES: N#Cc1c(Cl)c(Cl)c(Cl)c(C#N)c1Cl [chlorothalonil]
- pest or weed control at 138.129 ppm ([1]; Table G-1): 59%
- pest or weed control at 138.129 ppm ([1]; Table G-2): 59%
- pest or weed control at 222.081 ppm ([1]; Table G-1): 85%
- pest or weed control at 222.081 ppm ([1]; Table G-2): 85%

SMILES: CO/C=C(/C(=O)OC)c1ccccc1Oc1cc(Oc2ccccc2C#N)ncn1 [azoxystrobin]
- Obsd disease control ([1]; azoxystrobin 95.873 ppm alone, Table E-1): 70%
- Obsd disease control ([1]; azoxystrobin 95.873 ppm alone, Table E-2): 70%
- Obsd disease control ([1]; azoxystrobin 169.226 ppm alone, Table E-1): 88%
- Obsd disease control ([1]; azoxystrobin 169.226 ppm alone, Table E-2): 88%

SMILES: Fc1ccc([C@]2(Cn3cncn3)O[C@H]2c2ccccc2Cl)cc1 (racemic) [epoxiconazole]
- pest or weed control at 46.795 ppm ([1]; Table F-1): 23%
- pest or weed control at 46.795 ppm ([1]; Table F-2): 23%
- pest or weed control at 89.631 ppm ([1]; Table F-1): 70%
- pest or weed control at 89.631 ppm ([1]; Table F-2): 70%

SMILES: Cn1cc(C(=O)Nc2ccc(F)cc2-c2ccc(Cl)c(Cl)c2)c(C(F)F)n1 [bixafen]
- Obsd disease control ([1]; bixafen 11.327 ppm alone, Table C-1): 54%
- Obsd disease control ([1]; bixafen 11.327 ppm alone, Table C-2): 54%
- Obsd disease control ([1]; bixafen 19.525 ppm alone, Table C-1): 55%
- Obsd disease control ([1]; bixafen 19.525 ppm alone, Table C-2): 55%

SMILES: CCOC(=O)c1cnn(Cc2cc(O/C=C(\OCC)C(F)(F)F)ccc2C)c1 [compound 451]
- Test A disease control rating [2, 4]: 0%
- Test B disease control rating [3, 4]: 0%

SMILES: O=C(NCC(F)(F)F)c1cnn(Cc2ccc(OCC3(C(F)(F)F)OCCO3)cc2)c1 [compound 197]
- Test A disease control rating [2, 5]: 0%
- Test B disease control rating [3, 6]: 0%

SMILES: CCCO/C(=C\Oc1ccc(Cn2cc(C(=O)OCC)cn2)cc1)C(F)(F)F [compound 65]
- Test A disease control rating [2, 5]: 100%
- Test B disease control rating [3, 6]: 0%

SMILES: CCO/C(=C\Oc1ccc(C#N)cc1)C(F)(F)F [compound 144]
- Test A disease control rating [2, 5]: 78%
- Test B disease control rating [3, 6]: 0%

SMILES: CCO/C(=C\Oc1ccc(Cn2cc(C(=O)O)cn2)cc1)C(F)(F)F [compound 116]
- Test A disease control rating [2, 5]: 100%
- Test B disease control rating [3, 6]: 0%

SMILES: CCO/C(=C\Oc1ccc(CNC(=O)CC)cc1)C(F)(F)F [compound 150]
- Test A disease control rating [2, 5]: 33%
- Test B disease control rating [3, 6]: 0%

SMILES: CCO/C(=C\Oc1ccc(C(=O)NC(C)C)cc1)C(F)(F)F [compound 101]
- Test A disease control rating [2, 5]: 0%
- Test B disease control rating [3, 6]: 0%

SMILES: CCOC(=O)C1CCN(Cc2ccc(O/C=C(\OCC)C(F)(F)F)cc2)CC1 [compound 268]
- Test A disease control rating [2, 7]: 99%
- Test B disease control rating [3, 7]: 0%

SMILES: CCOC(=O)c1cnn(Cc2cccc(O/C=C(\OC)C(F)(F)F)c2)c1 [compound 365]
- Test A disease control rating [2, 7]: 100%
- Test B disease control rating [3, 7]: 0%

SMILES: CCO/C(=C\Oc1ccc(CNC(=O)CC(F)(F)F)cc1)C(F)(F)F [compound 113]
- Test A disease control rating [2, 5]: 0%
- Test B disease control rating [3, 6]: 0%

SMILES: CCOC(=O)c1cn(Cc2ccc(O/C=C(\OCC)C(F)(F)F)cc2)cn1 [compound 153]
- Test A disease control rating [2, 5]: 100%
- Test B disease control rating [3, 6]: 0%

SMILES: CCO/C(=C\Oc1ccc(Cn2cc(C(=O)OC)c3ccccc32)cc1)C(F)(F)F [compound 91]
- Test A disease control rating [2, 5]: 0%
- Test B disease control rating [3, 6]: 0%

SMILES: OCc1ccc(OCC2(C(F)(F)F)OCCO2)cc1 [compound 178]
- Test A disease control rating [2, 5]: 0%
- Test B disease control rating [3, 6]: 0%

SMILES: CCOC(=COc1ccc(CC2CC(C(=O)N(C)C)=NO2)cc1)C(F)(F)F (centres unmarked) [compound 288]
- Test A disease control rating [2, 4]: 96%
- Test B disease control rating [3, 4]: 0%

SMILES: CCO/C(=C\Oc1ccc(Cn2nc(C)cc2C)cc1)C(F)(F)F [compound 152]
- Test A disease control rating [2, 5]: 0%
- Test B disease control rating [3, 6]: 0%

SMILES: CCOC(=O)c1cnn(CCCc2cccc(O/C=C(\OCC)C(F)(F)F)c2)c1 [compound 421]
- Test A disease control rating [2, 7]: 0%
- Test B disease control rating [3, 7]: 0%

SMILES: CCOC(=O)c1ccnn1Cc1ccc(OCC(O)(O)C(F)(F)F)cc1 [compound 234]
- Test A disease control rating ([2]; 50 ppm test suspension, soybean seedlings): 100%
- Test B disease control rating ([3]; 50 ppm test suspension, wheat seedlings): 92%

SMILES: CCO/C(=C\Oc1ccc(CCn2cc(C(=O)O)cn2)cc1)C(F)(F)F [compound 328]
- Test A disease control rating [2, 7]: 100%
- Test B disease control rating [3, 7]: 0%

SMILES: CCO/C(=C\Oc1cccc(Cn2cc(C(=O)OCCOC(F)(F)F)cn2)c1)C(F)(F)F [compound 352]
- Test A disease control rating [2, 7]: 100%
- Test B disease control rating [3, 7]: 0%

SMILES: CCOC(=O)c1cnn(C(C)c2ccc(O/C=C(\OCC)C(F)(F)F)cc2)c1 (centres unmarked) [compound 267]
- Test A disease control rating [2, 7]: 94%
- Test B disease control rating [3, 7]: 0%

SMILES: O=C(OCC(F)(F)C(F)(F)F)c1cnn(Cc2ccc(OCC(O)(O)C(F)(F)F)cc2)c1 [compound 46]
- Test A disease control rating [2, 5]: 64%
- Test B disease control rating [3, 6]: 85%

SMILES: O=C(OCC(F)(F)F)c1cnn(Cc2ccc(OCC3(C(F)(F)F)OCCO3)cc2)c1 [compound 134]
- Test A disease control rating [2, 5]: 89%
- Test B disease control rating [3, 6]: 32%

SMILES: CCCCOC(=O)c1cnn(Cc2cccc(O/C=C(\OCC)C(F)(F)F)c2)c1 [compound 339]
- Test A disease control rating [2, 7]: 100%
- Test B disease control rating [3, 7]: 0%

SMILES: CC(C)C(=O)NCc1ccc(OCC2(C(F)(F)F)OCCO2)cc1 [compound 175]
- Test A disease control rating [2, 5]: 0%
- Test B disease control rating [3, 6]: 0%

SMILES: O=C(OCCCCl)c1cnn(Cc2ccc(OCC3(C(F)(F)F)OCCO3)cc2)c1 [compound 161]
- Test A disease control rating [2, 5]: 100%
- Test B disease control rating [3, 6]: 0%

SMILES: O=C(O)c1cnn(Cc2ccc(OCC3(C(F)(F)F)OCCO3)cc2)c1 [compound 93]
- Test A disease control rating [2, 5]: 96%
- Test B disease control rating [3, 6]: 0%

SMILES: COC(COc1cccc(Cn2cc(Br)cn2)c1)(O[Si](C)(C)C)C(F)(F)F (centres unmarked) [compound 385]
- pest or weed control at 50 ppm ([2]; Phakopsora pachyrhizi, 50 ppm test suspension, 0 = no control): 100%
- pest or weed control at 50 ppm ([3]; Puccinia recondita, 50 ppm test suspension, 0 = no control): 68%

SMILES: CCOC(=O)Cc1nnnn1Cc1ccc(O/C=C(\OCC)C(F)(F)F)cc1 [compound 84]
- Test A disease control rating [2, 5]: 0%
- Test B disease control rating [3, 6]: 0%

SMILES: CCOC(=O)c1cnn(Cc2cc(O/C=C(\OCC)C(F)(F)F)ccc2F)c1 [compound 302]
- Test A disease control rating [2, 4]: 99%
- Test B disease control rating [3, 4]: 0%

— US20240122180A1, “FUNGICIDAL HALOMETHYL KETONES AND HYDRATES AND THEIR MIXTURES” (FMC Corporation, priority 2020, published 2024)
